Source: the NIST ThermoML archive (doi:10.1016/j.jct.2014.06.012)
± gives the expanded uncertainty stated by the source.

Assay: molar heat capacity at constant pressure
Conditions: 101.33 kPa, Vacuum adiabatic calorimetry

O=P([O-])([O-])[O-].[Cs+].[Mn+2] [cesium manganese(II) phosphate]
molar heat capacity at constant pressure [J/K/mol]
Conditions	Crystal 2	Crystal 3
5 K	–	1.713 ± 0.075
5.85 K	–	2.328 ± 0.17
6 K	–	2.918 ± 0.12
6.04 K	–	3.492 ± 0.17
6.34 K	–	4.989 ± 0.39
6.38 K	–	5.654 ± 0.42
6.59 K	–	21.87 ± 1.1
6.73 K	–	13.64 ± 1.5
6.86 K	–	41.07 ± 4.6
6.9 K	4.573 ± 0.18	4.282 ± 0.17
7 K	4.623 ± 0.19	–
7.01 K	15.8 ± 0.91	–
7.32 K	9.146 ± 0.42	–
7.33 K	6.236 ± 0.34	–
7.8 K	5.986 ± 0.24	–
8 K	4.972 ± 0.2	–
8.09 K	5.321 ± 0.25	–
8.15 K	5.82 ± 0.23	–
8.3 K	5.488 ± 0.22	–
8.79 K	5.238 ± 0.22	–
9 K	5.271 ± 0.22	–
9.13 K	5.488 ± 0.25	–
9.54 K	5.404 ± 0.22	–
9.95 K	5.654 ± 0.25	–
10 K	5.579 ± 0.22	–
10.3 K	5.654 ± 0.23	–
11.03 K	5.903 ± 0.24	–
11.57 K	6.319 ± 0.26	–
12.47 K	6.818 ± 0.27	–
12.55 K	6.901 ± 0.28	–
13.98 K	7.816 ± 0.32	–
15 K	8.647 ± 0.33	–
15.39 K	8.98 ± 0.083	–
16.79 K	10.24 ± 0.12	–
18.22 K	11.6 ± 0.13	–
19.65 K	12.95 ± 0.14	–
20 K	13.29 ± 0.15	–
20.79 K	14.05 ± 0.16	–
21.93 K	15.15 ± 0.17	–
23.17 K	16.48 ± 0.17	–
24.41 K	17.81 ± 0.19	–
25 K	18.42 ± 0.2	–
26.16 K	19.68 ± 0.21	–
27.91 K	21.56 ± 0.22	–
29.7 K	23.55 ± 0.25	–
30 K	23.85 ± 0.25	–
30.98 K	25 ± 0.26	–
31.52 K	25.55 ± 0.27	–
32.86 K	26.96 ± 0.27	–
34.2 K	28.45 ± 0.29	–
35 K	29.29 ± 0.3	–
36 K	30.31 ± 0.32	–
37.79 K	32.15 ± 0.33	–
39.59 K	33.82 ± 0.35	–
40 K	34.22 ± 0.35	–
41.48 K	35.49 ± 0.22	–
43.18 K	36.82 ± 0.23	–
45 K	38.16 ± 0.24	–
45.05 K	38.3 ± 0.24	–
46.84 K	39.62 ± 0.25	–
48.73 K	41.07 ± 0.26	–
50 K	42.05 ± 0.27	–
50.55 K	42.5 ± 0.27	–
52.38 K	44 ± 0.28	–
54.21 K	45.4 ± 0.29	–
56.04 K	46.79 ± 0.3	–
57.87 K	48.08 ± 0.31	–
59.7 K	49.36 ± 0.32	–
60 K	49.65 ± 0.32	–
61.53 K	50.69 ± 0.32	–
63.37 K	52 ± 0.33	–
65.2 K	53.24 ± 0.33	–
67.03 K	54.47 ± 0.34	–
68.87 K	55.66 ± 0.35	–
70 K	56.41 ± 0.36	–
70.7 K	56.85 ± 0.36	–
72.42 K	57.92 ± 0.37	–
73.98 K	58.82 ± 0.37	–
75.54 K	59.72 ± 0.37	–
76.62 K	60.35 ± 0.38	–
77.7 K	60.98 ± 0.38	–
78.93 K	61.69 ± 0.39	–
79.65 K	62.09 ± 0.39	–
80 K	62.23 ± 0.39	–
80.15 K	62.42 ± 0.39	–
81.49 K	63.07 ± 0.4	–
82.19 K	63.43 ± 0.4	–
82.8 K	63.72 ± 0.4	–
84.9 K	64.7 ± 0.41	–
